# Assay results as given in US20220409620A1, “REDUCING IMMUNOGENICITY TO PEGLOTICASE” (Horizon Pharma Rheumatology LLC, priority 2016, published 2022).
# Tested on: adult patients with uncontrolled gout
# Assay: Tender and swollen joint counts, open-label study
# Assay type: in vivo, human
# Description: Tender and Swollen Joint Counts: Tender and swollen (excludes hip) joint counts were recorded at the Week −4 or week −6 (prior to the first dose of MTX) Visit during the MTX Run-in Period for the open-label and randomized studies, respectively; prior to pegloticase infusion at the Day 1 and Weeks 14, 24 and 36 Visits, or at the Day 1 and weeks 6, 14, 20, 24, 30, 36, and 44 visits during the Pegloticase+IMM Period for the open-label and randomized studies, respectively; and at the End of Pegloticase Infusions Visit (if applicable) and the Week 52/End of Study/Early Termination Visit and the Post Treatment 3 and 6 month Follow-up visits. Tender and swollen joint counts were assessed by physical examination.
# [1] = Early Termination Visit, Pegloticase Baseline, mITT Population
# [2] = End of Pegloticase Infusions Visit, Pegloticase Baseline, mITT Population
# [3] = Week 14, Pegloticase Baseline, mITT Population
# [4] = Week 24, Pegloticase Baseline, mITT Population
# [5] = Week 36, Pegloticase Baseline, mITT Population
# [6] = Week 52/ET, Pegloticase Baseline, mITT Population
# [7] = mITT, Early Termination Visit, n=3
# [8] = mITT, End of Pegloticase Infusions Visit, n=2
substance,measurement,setting,value
pegloticase,"Swollen Joint Count, Change from Baseline, Mean (SD)",[1],−3.3 (3.06)
same,"Swollen Joint Count, Change from Baseline, Median",[1],−4.0
same,"Swollen Joint Count, Observed, Mean (SD)",[1],0.7 (0.58)
same,"Swollen Joint Count, Observed, Median",[1],1.0
same,"Tender Joint Count, Change from Baseline, Mean (SD)",[1],−2.7 (4.16)
same,"Tender Joint Count, Change from Baseline, Median",[1],−4.0
same,"Tender Joint Count, Observed, Mean (SD)",[1],7.7 (8.96)
same,"Tender Joint Count, Observed, Median",[1],3.0
same,"Swollen Joint Count, Change from Baseline, Mean (SD)",[2],−2.0 (2.83)
same,"Swollen Joint Count, Change from Baseline, Median",[2],−2.0
same,"Swollen Joint Count, Observed, Mean (SD)",[2],0.0 (0.00)
same,"Swollen Joint Count, Observed, Median",[2],0.0
same,"Tender Joint Count, Change from Baseline, Mean (SD)",[2],−3.0 (5.66)
same,"Tender Joint Count, Change from Baseline, Median",[2],−3.0
same,"Tender Joint Count, Observed, Mean (SD)",[2],2.0 (2.83)
same,"Tender Joint Count, Observed, Median",[2],2.0
same,"Swollen Joint Count, Change from Baseline, Mean (SD)",[3],−3.6 (7.04)
same,"Swollen Joint Count, Change from Baseline, Median",[3],−2.5
same,"Swollen Joint Count, Observed, Mean (SD)",[3],1.7 (3.73)
same,"Swollen Joint Count, Observed, Median",[3],0.0
same,"Tender Joint Count, Change from Baseline, Mean (SD)",[3],−5.1 (8.12)
same,"Tender Joint Count, Change from Baseline, Median",[3],−5.0
same,"Tender Joint Count, Observed, Mean (SD)",[3],4.6 (6.16)
same,"Tender Joint Count, Observed, Median",[3],2.0
same,"Swollen Joint Count, Change from Baseline, Mean (SD)",[4],−5.1 (6.66)
same,"Swollen Joint Count, Change from Baseline, Median",[4],−3.0
same,"Swollen Joint Count, Observed, Mean (SD)",[4],0.5 (1.21)
same,"Swollen Joint Count, Observed, Median",[4],0.0
same,"Tender Joint Count, Change from Baseline, Mean (SD)",[4],−6.8 (8.16)
same,"Tender Joint Count, Change from Baseline, Median",[4],−4.0
same,"Tender Joint Count, Observed, Mean (SD)",[4],2.6 (3.88)
same,"Tender Joint Count, Observed, Median",[4],0.0
same,"Swollen Joint Count, Change from Baseline, Mean (SD)",[5],−6.2 (8.15)
same,"Swollen Joint Count, Change from Baseline, Median",[5],−4.0
same,"Swollen Joint Count, Observed, Mean (SD)",[5],0.1 (0.33)
same,"Swollen Joint Count, Observed, Median",[5],0.0
same,"Tender Joint Count, Change from Baseline, Mean (SD)",[5],−7.8 (8.94)
same,"Tender Joint Count, Change from Baseline, Median",[5],−4.0
same,"Tender Joint Count, Observed, Mean (SD)",[5],2.1 (4.54)
same,"Tender Joint Count, Observed, Median",[5],0.0
same,"Swollen Joint Count, Change from Baseline, Mean (SD)",[6],−13.0 (13.00)
same,"Swollen Joint Count, Change from Baseline, Median",[6],−13.0
same,"Swollen Joint Count, Observed, Mean (SD)",[6],0.0 (0.00)
same,"Swollen Joint Count, Observed, Median",[6],0.0
same,"Tender Joint Count, Change from Baseline, Mean (SD)",[6],−16.0 (17.52)
same,"Tender Joint Count, Change from Baseline, Median",[6],−15.0
same,"Tender Joint Count, Observed, Mean (SD)",[6],5.3 (3.21)
same,"Tender Joint Count, Observed, Median",[6],4.0
same,"Swollen Joint Count, Change from Methotrexate Baseline, Mean (SD)","mITT, Day 1, n=14",−0.7 (5.21)
same,"Swollen Joint Count, Change from Methotrexate Baseline, Median","mITT, Day 1, n=14",0.5
same,"Swollen Joint Count, Observed, Mean (SD)","mITT, Day 1, n=14",5.3 (6.94)
same,"Swollen Joint Count, Observed, Median","mITT, Day 1, n=14",3.5
same,"Tender Joint Count, Change from Methotrexate Baseline, Mean (SD)","mITT, Day 1, n=14",−1.9 (9.75)
same,"Tender Joint Count, Change from Methotrexate Baseline, Median","mITT, Day 1, n=14",0.0
same,"Tender Joint Count, Observed, Mean (SD)","mITT, Day 1, n=14",9.6 (11.03)
same,"Tender Joint Count, Observed, Median","mITT, Day 1, n=14",7.0
same,"Swollen Joint Count, Change from Methotrexate Baseline, Mean (SD)",[7],−1.0 (1.73)
same,"Swollen Joint Count, Change from Methotrexate Baseline, Median",[7],0.0
same,"Swollen Joint Count, Observed, Mean (SD)",[7],0.7 (0.58)
same,"Swollen Joint Count, Observed, Median",[7],1.0
same,"Tender Joint Count, Change from Methotrexate Baseline, Mean (SD)",[7],0.7 (5.13)
same,"Tender Joint Count, Change from Methotrexate Baseline, Median",[7],2.0
same,"Tender Joint Count, Observed, Mean (SD)",[7],7.7 (8.96)
same,"Tender Joint Count, Observed, Median",[7],3.0
same,"Swollen Joint Count, Change from Methotrexate Baseline, Mean (SD)",[8],−7.0 (4.24)
same,"Swollen Joint Count, Change from Methotrexate Baseline, Median",[8],−7.0
same,"Swollen Joint Count, Observed, Mean (SD)",[8],0.0 (0.00)
same,"Swollen Joint Count, Observed, Median",[8],0.0
same,"Tender Joint Count, Change from Methotrexate Baseline, Mean (SD)",[8],−12.0 (7.07)
same,"Tender Joint Count, Change from Methotrexate Baseline, Median",[8],−12.0
same,"Tender Joint Count, Observed, Mean (SD)",[8],2.0 (2.83)
same,"Tender Joint Count, Observed, Median",[8],2.0
same,"Swollen Joint Count, Change from Methotrexate Baseline, Mean (SD)","mITT, Week 14, n=14",−4.3 (7.38)
same,"Swollen Joint Count, Change from Methotrexate Baseline, Median","mITT, Week 14, n=14",−2.0
same,"Swollen Joint Count, Observed, Mean (SD)","mITT, Week 14, n=14",1.7 (3.73)
same,"Swollen Joint Count, Observed, Median","mITT, Week 14, n=14",0.0
same,"Tender Joint Count, Change from Methotrexate Baseline, Mean (SD)","mITT, Week 14, n=14",−7.0 (14.20)
same,"Tender Joint Count, Change from Methotrexate Baseline, Median","mITT, Week 14, n=14",0.0
same,"Tender Joint Count, Observed, Mean (SD)","mITT, Week 14, n=14",4.6 (6.16)
same,"Tender Joint Count, Observed, Median","mITT, Week 14, n=14",2.0
same,"Swollen Joint Count, Change from Methotrexate Baseline, Mean (SD)","mITT, Week 24, n=11",−6.6 (9.03)
same,"Swollen Joint Count, Change from Methotrexate Baseline, Median","mITT, Week 24, n=11",−3.0
same,"Swollen Joint Count, Observed, Mean (SD)","mITT, Week 24, n=11",0.5 (1.21)
same,"Swollen Joint Count, Observed, Median","mITT, Week 24, n=11",0.0
same,"Tender Joint Count, Change from Methotrexate Baseline, Mean (SD)","mITT, Week 24, n=11",−10.2 (14.27)
same,"Tender Joint Count, Change from Methotrexate Baseline, Median","mITT, Week 24, n=11",−4.0
same,"Tender Joint Count, Observed, Mean (SD)","mITT, Week 24, n=11",2.6 (3.88)
same,"Tender Joint Count, Observed, Median","mITT, Week 24, n=11",0.0
same,"Swollen Joint Count, Change from Methotrexate Baseline, Mean (SD)","mITT, Week 36, n=9",−7.8 (10.81)
same,"Swollen Joint Count, Change from Methotrexate Baseline, Median","mITT, Week 36, n=9",−3.0
same,"Swollen Joint Count, Observed, Mean (SD)","mITT, Week 36, n=9",0.1 (0.33)
same,"Swollen Joint Count, Observed, Median","mITT, Week 36, n=9",0.0
same,"Tender Joint Count, Change from Methotrexate Baseline, Mean (SD)","mITT, Week 36, n=9",−12.3 (14.56)
same,"Tender Joint Count, Change from Methotrexate Baseline, Median","mITT, Week 36, n=9",−7.0
same,"Tender Joint Count, Observed, Mean (SD)","mITT, Week 36, n=9",2.1 (4.54)
same,"Tender Joint Count, Observed, Median","mITT, Week 36, n=9",0.0
same,"Swollen Joint Count, Change from Methotrexate Baseline, Mean (SD)","mITT, Week 52/ET, n=3",−21.0 (9.64)
same,"Swollen Joint Count, Change from Methotrexate Baseline, Median","mITT, Week 52/ET, n=3",−25.0
same,"Swollen Joint Count, Observed, Mean (SD)","mITT, Week 52/ET, n=3",0.0 (0.00)
same,"Swollen Joint Count, Observed, Median","mITT, Week 52/ET, n=3",0.0
same,"Tender Joint Count, Change from Methotrexate Baseline, Mean (SD)","mITT, Week 52/ET, n=3",−24.0 (21.38)
same,"Tender Joint Count, Change from Methotrexate Baseline, Median","mITT, Week 52/ET, n=3",−17.0
same,"Tender Joint Count, Observed, Mean (SD)","mITT, Week 52/ET, n=3",5.3 (3.21)
same,"Tender Joint Count, Observed, Median","mITT, Week 52/ET, n=3",4.0
